Experimental data published in patent US7238720B2, “Pharmaceutical use of N-carbamoylazole derivatives” (Eisai R & D Management Co. Ltd., priority 2001, dated 2007).

Experiments:
[1] = target: T1, DPP-IV, obtained from porcine kidneys (Sus scrofa, UniProt P22411); experiment: Measurement of DPPIV inhibiting effects (Gly-Pro-p-nitroanilide, absorbance at 405 nm); type: biochemical; conditions: porcine kidney DPP-IV 10 mU/mL, 20 min preincubation, Gly-Pro-p-nitroanilide 0.33 mM, pH 7.4
T1 construct: DPP-IV, obtained from porcine kidneys; from tissue; host or cells: porcine kidney
Experimental: Measurement of DPPIV Inhibiting Effects
DPP-IV, obtained from porcine kidneys, was dissolved in a reaction buffer solution (50 mM Tris-HCl, pH 7.4, 0.1% BSA) such that the concentration of DPP-IV was at 10 mU/mL. This solution (110 μl) was placed into test tubes, to which compounds to be tested were further added at a quantity of 15 μl and incubated at room temperature for 20 minutes. Twenty-five microliters of a solution in which Gly-Pro-p-nitroanilide was dissolved at 2 mM was added (final concentration, 0.33 mM) to start the enzymatic reaction. The reaction time was 20 minutes. The reaction was stopped by the addition of 25 μl of 1 N phosphoric acid.

male C57BL/6N mice = experiment: Glucose-tolerance improving effects in normal mice, Experiments 1 and 2 (compound given orally mixed with glucose); type: in vivo; conditions: for Blood Glucose, At Indicated Times (min.) After Oral Administration: mean ± standard error
Experimental: Test for Identifying Glucose-Tolerance Improving Effects
Effects on Glucose-Tolerance Ability of Normal Mice
Animals: Five or six male C57BL/6N mice per group (purchased from Charles River Japan, Inc.).
Compounds to be tested were suspended in a 0.5% aqueous solution of methylcellulose and mixed with an equal volume of a glucose solution, and administered orally at a volume of 10 ml/kg at doses indicated in Tables below. Vehicle control groups received orally a mixture of a 0.5% aqueous solution of methylcellulose and an equal volume of a glucose solution at a volume of 10 ml/kg. Glucose was given at a dose of 2 g/kg.
The blood was drawn from the tail vein immediately before and at 30, 60, and 120 minutes after the administration of mixed solutions of the compounds to be tested and glucose, and subjected to the measurement of the blood glucose value.
The tail vein of the mice was injured, without anesthesia, with a razor to cause slight bleeding. Ten microliters of blood was collected, and mixed immediately with […] of 0.6 M perchloric acid. The glucose in supernatants obtained by centrifugation (1500 g, 10 min. 4° C., in a cooled centrifuge GS-6KR from Beckman Ltd.) was determined employing a Glucose CII Test Wako kit (Wako Pure Chemical Industries, Ltd.).
The results are expressed by mean value±standard error.

T1 sequence (P22411 whole entry): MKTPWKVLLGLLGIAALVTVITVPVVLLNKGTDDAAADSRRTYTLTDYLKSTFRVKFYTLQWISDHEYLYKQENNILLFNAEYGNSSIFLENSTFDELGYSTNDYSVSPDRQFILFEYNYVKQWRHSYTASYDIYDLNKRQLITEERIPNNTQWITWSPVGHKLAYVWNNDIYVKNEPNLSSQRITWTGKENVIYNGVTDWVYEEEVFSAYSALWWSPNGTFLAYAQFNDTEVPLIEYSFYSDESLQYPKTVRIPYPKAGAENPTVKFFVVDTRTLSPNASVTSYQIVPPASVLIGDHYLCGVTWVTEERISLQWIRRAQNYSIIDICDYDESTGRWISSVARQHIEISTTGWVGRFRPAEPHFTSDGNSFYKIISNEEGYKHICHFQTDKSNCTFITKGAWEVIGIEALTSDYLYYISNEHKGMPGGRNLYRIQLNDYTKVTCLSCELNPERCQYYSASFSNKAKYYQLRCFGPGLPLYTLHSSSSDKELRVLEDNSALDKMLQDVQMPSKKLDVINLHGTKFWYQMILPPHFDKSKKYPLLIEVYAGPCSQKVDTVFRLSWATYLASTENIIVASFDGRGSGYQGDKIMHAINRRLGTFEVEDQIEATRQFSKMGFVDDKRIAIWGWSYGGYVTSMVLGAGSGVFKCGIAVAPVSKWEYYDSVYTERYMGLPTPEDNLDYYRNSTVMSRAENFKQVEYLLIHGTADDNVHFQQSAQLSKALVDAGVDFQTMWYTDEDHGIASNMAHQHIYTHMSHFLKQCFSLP

| Molecule | IC50 [1] [nM] | also measured |
| --- | --- | --- |
| CN(C)C(=O)n1cnc(S(=O)(=O)Cc2ccccc2)n1 [Example 2, 3-Benzylsulfonyl-1-dimethylcarbamoyl-1H-1,2,4-triazole] | 1390 | Blood Glucose, At Indicated Times (min.) After Oral Administration (male C57BL/6N mice; Experiment 1, 30 mg/kg oral with glucose 2 g/kg, 0 min (immediately before administration)): 75.8 ± 1.5 mg/dL; Blood Glucose, At Indicated Times (min.) After Oral Administration (male C57BL/6N mice; Experiment 1, 30 mg/kg oral with glucose 2 g/kg, 30 min): 159.8 ± 5.5 mg/dL; Blood Glucose, At Indicated Times (min.) After Oral Administration (male C57BL/6N mice; Experiment 1, 30 mg/kg oral with glucose 2 g/kg, 60 min): 133.8 ± 4.1 mg/dL; Blood Glucose, At Indicated Times (min.) After Oral Administration (male C57BL/6N mice; Experiment 1, 30 mg/kg oral with glucose 2 g/kg, 120 min): 109.6 ± 3.0 mg/dL |
| CN(C)C(=O)n1cnc(S(=O)(=O)[C@@H]2C[C@@H]3CC[C@H]2C3)n1 (relative stereo) [Example 13, 3-(Endo-norbornan-2-yl)sulfonyl-1-dimethylcarbamoyl-1H-1,2,4-triazole] | 164 | Blood Glucose, At Indicated Times (min.) After Oral Administration (male C57BL/6N mice; Experiment 2, 3 mg/kg oral with glucose 2 g/kg, 0 min (immediately before administration)): 73.9 ± 3.0 mg/dL; Blood Glucose, At Indicated Times (min.) After Oral Administration (male C57BL/6N mice; Experiment 2, 3 mg/kg oral with glucose 2 g/kg, 30 min): 177.7 ± 6.3 mg/dL; Blood Glucose, At Indicated Times (min.) After Oral Administration (male C57BL/6N mice; Experiment 2, 3 mg/kg oral with glucose 2 g/kg, 60 min): 139.7 ± 6.7 mg/dL; Blood Glucose, At Indicated Times (min.) After Oral Administration (male C57BL/6N mice; Experiment 2, 3 mg/kg oral with glucose 2 g/kg, 120 min): 92.5 ± 2.4 mg/dL; Blood Glucose, At Indicated Times (min.) After Oral Administration (male C57BL/6N mice; Experiment 2, 10 mg/kg oral with glucose 2 g/kg, 0 min (immediately before administration)): 73.3 ± 2.8 mg/dL; Blood Glucose, At Indicated Times (min.) After Oral Administration (male C57BL/6N mice; Experiment 2, 10 mg/kg oral with glucose 2 g/kg, 30 min): 159.9 ± 9.9 mg/dL; Blood Glucose, At Indicated Times (min.) After Oral Administration (male C57BL/6N mice; Experiment 2, 10 mg/kg oral with glucose 2 g/kg, 60 min): 129.3 ± 9.1 mg/dL; Blood Glucose, At Indicated Times (min.) After Oral Administration (male C57BL/6N mice; Experiment 2, 10 mg/kg oral with glucose 2 g/kg, 120 min): 90.6 ± 3.2 mg/dL; Blood Glucose, At Indicated Times (min.) After Oral Administration (male C57BL/6N mice; Experiment 2, 30 mg/kg oral with glucose 2 g/kg, 0 min (immediately before administration)): 70.4 ± 4.0 mg/dL; Blood Glucose, At Indicated Times (min.) After Oral Administration (male C57BL/6N mice; Experiment 2, 30 mg/kg oral with glucose 2 g/kg, 30 min): 148.7 ± 5.1 mg/dL; Blood Glucose, At Indicated Times (min.) After Oral Administration (male C57BL/6N mice; Experiment 2, 30 mg/kg oral with glucose 2 g/kg, 60 min): 127.3 ± 5.9 mg/dL; Blood Glucose, At Indicated Times (min.) After Oral Administration (male C57BL/6N mice; Experiment 2, 30 mg/kg oral with glucose 2 g/kg, 120 min): 93.7 ± 2.3 mg/dL; Blood Glucose, At Indicated Times (min.) After Oral Administration (male C57BL/6N mice; Experiment 2, 100 mg/kg oral with glucose 2 g/kg, 0 min (immediately before administration)): 72.0 ± 2.1 mg/dL; Blood Glucose, At Indicated Times (min.) After Oral Administration (male C57BL/6N mice; Experiment 2, 100 mg/kg oral with glucose 2 g/kg, 30 min): 147.1 ± 16.2 mg/dL; Blood Glucose, At Indicated Times (min.) After Oral Administration (male C57BL/6N mice; Experiment 2, 100 mg/kg oral with glucose 2 g/kg, 60 min): 133.7 ± 8.8 mg/dL; Blood Glucose, At Indicated Times (min.) After Oral Administration (male C57BL/6N mice; Experiment 2, 100 mg/kg oral with glucose 2 g/kg, 120 min): 106.2 ± 5.4 mg/dL; effect on glucose-tolerance ability of normal mice (male C57BL/6N mice; oral administration, Experiments 1 and 2, result in words): distinct effect |
| Cc1nc2ccccn2c1S(=O)(=O)c1ncn(C(=O)N(C)C)n1 [Example 51, 3-(2-Methylimidazo[1,2-a]pyridin-3-yl)sulfonyl-1-dimethylcarbamoyl-1H-1,2,4-triazole] | 106 |  |
| CN(C)C(=O)n1cnc(Sc2cccc(Br)n2)n1 [Example 52, 3-(6-Bromo-2-pyridyl)thio-1-dimethylcarbamoyl-1H-1,2,4-triazole] | 4790 |  |
| CN(C)C(=O)n1cnc(SCC2CCCCC2)n1 [Example 16, 3-Cyclohexylmethylthio-1-dimethylcarbamoyl-1H-1,2,4-triazole] | 5530 |  |
| CN(C)C(=O)n1cnc(S(=O)(=O)CC(C)(C)C)n1 [Example 21, 3-(2-Dimethylpropyl)sulfonyl-1-dimethylcarbamoyl-1H-1,2,4-triazole] | 688 |  |
| Cc1cc(C)c(S(=O)(=O)c2ncn(C(=O)N(C)C(C)C)n2)c(C)c1 [Example 38, 3-(2,4,6-Trimethylphenyl)sulfonyl-1-(N-methyl-N-isopropylcarbamoyl)-1H-1,2,4-triazole] | 1.63 |  |
| CN(C)C(=O)n1cnc(S(=O)(=O)C2CCOc3ccccc32)n1 (stereo not drawn) [Example 11, 3-(Chroman-4-yl)sulfonyl-1-dimethylcarbamoyl-1H-1,2,4-triazole] | 216 |  |
| CCN(C)C(=O)n1cnc(S(=O)(=O)c2c(C)cc(C)cc2C)n1 [Example 36, 3-(2,4,6-Trimethylphenyl)sulfonyl-1-(N-methyl-N-ethylcarbamoyl)-1H-1,2,4-triazole] | 0.347 |  |
| 3-(Endo-norbornan-2-yl)sulfonyl-1-(N-methyl-N-phenylcarbamoyl)-1H-1,2,4-triazole [Example 22] | 2290 |  |
| CC(C)CCS(=O)(=O)c1ncn(C(=O)N(C)C)n1 [Example 20, 3-(3-Methylbutyl)sulfonyl-1-dimethylcarbamoyl-1H-1,2,4-triazole] | 1370 |  |
| CCCN(C)C(=O)n1cnc(S(=O)(=O)c2c(C)cc(C)cc2C)n1 [Example 37, 3-(2,4,6-Trimethylphenyl)sulfonyl-1-(N-methyl-N-propylcarbamoyl)-1H-1,2,4-triazole] | 10 |  |
| CCCN(C)C(=O)n1cnc(S(=O)(=O)[C@@H]2C[C@@H]3CC[C@H]2C3)n1 (relative stereo) [Example 28, 3-(Endo-norbornan-2-yl)sulfonyl-1-(N-methyl-N-propylcarbamoyl)-1H-1,2,4-triazole] | 58.4 |  |
| Cc1ccc(S(=O)(=O)c2ccn(C(=O)N(C)C)n2)cc1 [Example 59, 3-(4-Toluenesulfonyl)-1-dimethylcarbamoyl-1H-pyrazole] | 4220 |  |
| CN(C)C(=O)n1cnc(S(=O)(=O)C(c2ccc(F)cc2)c2ccc(F)cc2)n1 [Example 9, 3-[Bis(4-fluorophenyl)methyl]sulfonyl-1-dimethylcarbamoyl-1H-1,2,4-triazole] | 219 |  |
| Cc1noc(C)c1S(=O)(=O)c1ncn(C(=O)N(C)C)n1 [Example 47, 3-(3,5-Dimethylisoxazol-4-yl)sulfonyl-1-dimethylcarbamoyl-1H-1,2,4-triazole] | 103 |  |
| Cc1cc(C)n(S(=O)(=O)c2ncn(C(=O)N(C)C)n2)n1 [Example 56, 3-(3,5-Dimethylpyrazol-1-yl)sulfonyl-1-dimethylcarbamoyl-1H-1,2,4-triazole] | 101 |  |
| CN(C(=O)n1cnc(S(=O)(=O)[C@@H]2C[C@@H]3CC[C@H]2C3)n1)C(C)(C)C (relative stereo) [Example 31, 3-(Endo-norbornan-2-yl)sulfonyl-1-(N-methyl-N-tert-butylcarbamoyl)-1H-1,2,4-triazole] | 920 |  |
| Cc1ccc(S(=O)(=O)c2ncn(C(=O)N(C)C)n2)cc1 [Example 60, 3-(4-Toluenesulfonyl)-1-dimethylcarbamoyl-1H-1,2,4-triazole] | 335 |  |
| CN(C)C(=O)n1cnc(S(=O)(=O)N(C)c2ccc(Cl)cc2)n1 [Example 58, 3-[N-(4-chlorophenyl)-N-methylamino]sulfonyl-1-dimethylcarbamoyl-1H-1,2,4-triazole] | 15.7 |  |
| Cc1nn(-c2ccccc2)c(C)c1S(=O)(=O)c1ncn(C(=O)N(C)C)n1 [Example 49, 3-(3,5-Dimethyl-1-phenylpyrazol-4-yl)sulfonyl-1-dimethylcarbamoyl-1H-1,2,4-triazole] | 25.8 |  |
| Cc1cc(C)c(S(=O)(=O)c2ncn(C(=O)N(C)C)n2)c(C)c1 [Example 33, 3-(2,4,6-Trimethylphenyl)sulfonyl-1-dimethylcarbamoyl-1H-1,2,4-triazole] | 9.51 |  |
| C=CCN(C)C(=O)n1cnc(S(=O)(=O)[C@@H]2C[C@@H]3CC[C@H]2C3)n1 (relative stereo) [Example 27, 3-(Endo-norbornan-2-yl)sulfonyl-1-(N-methyl-N-allylcarbamoyl)-1H-1,2,4-triazole] | 78.2 |  |
| CN(C)C(=O)n1cnc(S(=O)(=O)Cc2ccc(F)cc2)n1 [Example 4, 3-(4-Fluorobenzyl)sulfonyl-1-dimethylcarbamoyl-1H-1,2,4-triazole] | 657 |  |
